The values that follow come from patent US11160836B2, “Transgenic pig islets and uses thereof for treating diabetes” (priority 2014, dated 2021).

The subject of one assay is isolated pig islets. The experiment in a line: Glucose-induced insulin secretion from isolated pig islets, static incubation with pharmacological PKC/PKA activators. It counts as cell-based. The note with it: 2 h, PMA 20 nM and/or forskolin 1 μM. As for the experimental part:
FIG. 1 is a histogram showing the insulin secretion from adult and neonate isolated pig islets. […] Insulin secretion was measured in the incubation media and expressed as a percentage of total insulin content of each batch of islets. The numbers above the columns represent the fold increase of insulin secretion in test groups compared to 15 mM glucose alone. * p<0.05. […] Finally, insulin was quantified in recovered media and in incubated islets by radioimmuno-assay.

In a further assay the test system is adult pig islets. Briefly: Dynamic islet perifusion, glucose-induced insulin secretion of virus-treated adult pig islets. It counts as cell-based. The note with it: adenoviral vector MOI 200, 48 h, perifused G1 then 30 min G15. As for the experimental part:
FIG. 4 is a graph showing the insulin secretion of isolated adult pig islets exposed to 200 MOI viral expression vectors carrying sequences coding for GLP-1 (GLP-1 Ser8), activated muscarinic receptor (M3R) or both (GLP-1+M3R) during 48 hours. Batches of 600 islets were perifused in krebs medium containing 1 mM glucose (G1) then 15 mM glucose (G15) as indicated on top of the figure. Insulin secretion was then measured in the effluent fractions. Values are means±SEM for n=3-4 from 4 different preparations.
The effect of transgenic PKA and PKC activation on glucose-induced insulin secretion was also tested during dynamic islet perifusion experiments. Control and virus-treated adult islets were placed in perifusion chambers sealed with 0.2 μm filters. Islets were first perifused with 1 mM glucose (G1) krebs medium during 30 minutes for equilibrium then during 10 minutes in G1 with media collection every 2 minutes followed by 30 minutes stimulation with G15.

A further assay concerns MIN6 cells. Briefly: Glucose-induced insulin secretion from transfected MIN6 cells, static incubation. It counts as cell-based, murine. The settings on record: MIN6 cells 48 h after plasmid transfection; 2 h in 1 or 15 mM glucose; control cells 2.2. On the procedure: FIG. 2 is a histogram showing glucose-induced insulin secretion from transfected Min6 cells incubated with 1 (G1) or 15 mM (G15) glucose. The numbers above pairs of columns represent the stimulation ratio (G15/G1) in each group. * p<0.05 indicates significant difference between test groups and controls. Values are means±SEM for n=15-21 from 7 different experiments.
To verify the effect of the transgenic proteins on insulin secretion, transfected and control MIN6 cells were challenged by an increase of glucose concentration during static incubation experiments. Insulin secretion was measured and the stimulation index i.e., the ratio between insulin secretion at high glucose and insulin secretion at low glucose, of transgenic and control cells was calculated. In brief, 2·10^5 cells were seeded in 12-well plates and cultivated for 48 h before they were transfected with one the plasmids carrying the GLP-1 (7-37) gene (GLP-1), the mutated GLP-1 (7-A8S-37) gene (GLP-1 Ser8) or the constitutively activated muscarinic receptor gene (M3). Control cells were simply exposed to Lipofectamine without any plasmidic DNA. 48 h after transfection, cells were starved then incubated for 2 h in a 1 mL Krebs-Ringer buffer containing either 1 or 15 mM glucose. Insulin secretion was measured in the incubation media and expressed as a percentage of total insulin content of the cells.

As for `CCCCCCCCCCCCCC(=O)O[C@@H]1[C@@H](C)[C@@]2(O)[C@@H](C=C(CO)C[C@]3(O)C(=O)C(C)=C[C@@H]23)[C@@H]2C(C)(C)[C@]12OC(C)=O` [PMA, phorbol myristate acetate], the “fold increase of insulin secretion compared to 15 mM glucose alone” value with isolated pig islets (islets from adult pigs) was 2 fold; in the assay with isolated pig islets (islets from neonate pigs) it was “up to 8 fold”.
For GLP-1, the “effect on acute glucose-induced insulin secretion during perifusion, in words” value with adult pig islets is “virtually no effect”. Besides, the “stimulation index (insulin secretion G15/G1)” value in the assay on MIN6 cells was found to be 2.6.
